Laboratory results taken from US7094807B2, “Substituted aryl thioureas and related compounds; inhibitors of viral replication” (Achillion Pharmaceuticals, Inc., priority 2002, dated 2006).

tested on: HCV replicon; experiment: HCV replicon assay (NPT ELISA in HCV replicon-containing cells); assay type: cell-based; conditions: Hepatitis C virus, 72 h, read-out: EC50 for inhibition of viral RNA replicon replication in Huh9-13 cells
Experimental: The compounds claimed herein were tested for the ability to inhibit viral replication of the Hepatitis C replicon in cultured cells in which the HCV replicon construct has been incorporated. The HCV replicon system was described by Bartenschlager, et. al (Science, 285, pp. 110-113 (1999)). The replicon system is predictive of in vivo anti-HCV activity; compounds that are active in humans uniformly evidence activity in the replicon assay.
In this assay HCV replicon containing cells are treated with different concentrations of the test compound to ascertain the ability of the test compound to suppress replication of the HCV replicon. As a positive control, HCV replicon-containing cells are treated with different concentrations of interferon alpha, a known inhibitor of HCV replication. The replicon assay system includes Neomycin Phosphotransferase (NPT) as a component of the replicon itself in order to detect the transcription of replicon gene products in the host cell. Cells in which the HCV replicon is actively replicating have high levels of NPT; the level of NPT is proportional to HCV replication. […] The NPT level of each sample is measured using a captured ELISA.
A protocol for testing compounds for the ability to inhibit viral replication of the Hepatitis C replicon cultured cells in which the replicon construct has been incorporated, follows.
The HCV replicon contains, 5-′3′, the HCV-IRES, the neomycin phosphotransferase (neo) gene, the IRES of encephalomyocarditis virus, which directs translation of HCV sequences NS3 to NS5B, and the 3′-NTR. The sequence of the HCV replicon has been deposited in GenBank (Accession no. AJ242652).
The replicon is transfected into Huh-7 cells using standard methods such as electroporation.
The equipment and materials include, but are not limited to, Huh-7 HCV replicon-containing cells, maintenance media (DMEM (Dulbecco's modified Eagle media) supplemented with 10% FBS, L-glutamine, non-essential amino acids, penicillin (100 units/ml), streptomycin (100 micrograms/ml), and 500 micrograms/ml of Geneticin G418), screening media (DMEM supplemented with 10% FBS, L-glutamine, and non-essential amino acid, penicillin (100 units/ml) and streptomycin (100 micrograms/ml)), 96 well tissue culture plates (flat bottom), 96 well plates (U bottom for drug dilution), Interferon alpha for positive control, fixation reagent (such as methanol: acetone), primary antibody (rabbit anti-NPTII), secondary antibody: Eu-N1 l, and enhancement solution.
HCV replicon-containing cells are rinsed with once PBS once; 2 mls of trypsin is added. Cells are incubated at 37° C. in a 5% CO2 incubator for 3-5 minutes. 10 mls of complete medium is added to stop the reaction. Cells are blown gently, put into a 15 ml tube, and spun at 1200 rpm for four minutes. The trypsin/medium solution is removed and 5 mls of medium (500 ml DMEM (high glucose)) from BRL catalog #12430-054; 50 mls 10% FBS, […] (50 mg/ml, BRL 10131-035), 5 ml MEM non-essential amino acid (100×BRL #11140-050) and 5 ml pen-strep (BRL #15140-148) is added. The cells and media are mixed carefully
Cells are plated with screening medium (500 ml DMEM (BRL #21063-029), 50 ml FBS (BRL #10082-147) and 5 ml MEM non-essential amino acid (BRL #11140-050) at 6000-7500 cells/100 μl/well of 96 well plate (6-7.5×10^5 cells/10 ml/plate). Plates are placed into 37° C. 5% CO2 incubator overnight.
The following morning, drugs (test compounds or interferon alpha) are diluted in 96 well U bottom plates with media or DMSO/media, depending on the final concentration chosen for screening. Generally for 6 concentrations of each test compounds ranging from 10 micromolar to 0.03 micromolar are applied. 100 μl of the test compound dilution is placed in wells of the 96 well plate containing the HCV replicon cells. Media without drug is added to some wells as a negative controls. DMSO is known to affect cell growth. […]

SMILES	EC50
CCCCOC(=O)c1ccc(NC(=S)N(C)C(=O)COc2ccccc2C)cc1 [Compound 4, 4-[3-Methyl-3-(2-o-tolyloxy-acetyl)-thioureido]-benzoic acid butyl ester]	4.3 µM
CCCCOC(=O)c1ccc(NC(=S)NC(=O)COc2ccc(F)cc2)cc1 [Compound 7, 4-{3-[2-(4-Fluoro-phenoxy)-acetyl]-thioureido}-benzoic acid butyl ester]	3.4 µM
N#Cc1ccc(NC(=S)NC(=O)COc2ccc(Cl)c(Cl)c2)cc1 [Compound 24, 1-(2-(3,4-dichloro-phenoxy)acetyl)-3-(4-cyanophenyl)thiourea]	12.1 µM
CCCCOC(=O)c1ccc(NC(=S)NC(=O)CSc2ccccc2)cc1 [Compound 36, 4-[3-(2-(Phenylsulfanyl)-acetyl)-thioureido]-benzoic acid butyl ester]	2.3 µM

same assay, conditions: Hepatitis C virus, 72 h; HCV replicon-containing Huh-7 cells; three days incubation; read-out: EC50 for inhibition of replication of the HCV replicon

SMILES	EC50
CCCCOC(=O)c1ccc(NC(=S)NC(=O)c2ccc3ccccc3c2)cc1 [Compound 1, 4-[3-(Naphthalene-2-carbonyl)-thioureido]-benzoic Acid Butyl Ester]	< 30 µM
CCCCOC(=O)c1ccc(NC(=S)N(C)C(=O)COc2ccccc2)cc1 [Compound 2, 4-[3-Methyl-3-(2-Phenoxy-acetyl)-thioureido]benzoic Acid Butyl Ester]	< 30 µM
O=C(COc1ccc(C2CC2)cc1)NC(=S)NCc1cccs1 [Compound 3, 1-(2-(4-Cylcopropylphenoxy)acetyl)-3-((thiophen-2-yl)methyl)thiourea]	< 30 µM
CCCCOC(=O)c1ccc(NC(=S)N(C)C(=O)COc2ccccc2C)cc1 [Compound 4, 4-[3-Methyl-3-(2-o-tolyloxy-acetyl)-thioureido]-benzoic acid butyl ester]	< 30 µM
CCCCOC(=O)c1ccc(NC(=S)N(C)C(=O)COc2cccc(C)c2)cc1 [Compound 5, 4-[3-Methyl-3-(2-m-tolyloxy-acetyl)-thioureido]-benzoic acid butyl ester]	< 30 µM
CCCCOC(=O)c1ccc(NC(=S)NC(=O)COc2ccc(C)cc2)cc1 [Compound 6, 4-[3-(2-p-tolyloxy-acetyl)-thioureido]-benzoic acid butyl ester]	< 30 µM
CCCCOC(=O)c1ccc(NC(=S)NC(=O)COc2ccc(F)cc2)cc1 [Compound 7, 4-{3-[2-(4-Fluoro-phenoxy)-acetyl]-thioureido}-benzoic acid butyl ester]	< 30 µM
CCCCOC(=O)c1ccc(NC(=S)NC(=O)COc2ccc(OC)cc2)cc1 [Compound 8, 4-{3-[2-(4-Methoxy-phenoxy)-acetyl]-thioureido}-benzoic acid butyl ester]	< 30 µM
O=C(COc1ccccc1)NC(=S)Nc1ccc(F)cc1 [Compound 9, 1-(4-Fluoro-phenyl)-3-(2-phenoxy-acetyl)-thiourea]	< 30 µM
COc1cccc(NC(=S)NC(=O)COc2ccccc2)c1 [Compound 10, 1-(3-Methoxy-phenyl)-3-(2-phenoxy-acetyl)-thiourea]	< 30 µM
COc1ccc(NC(=S)NC(=O)COc2ccccc2)cc1 [Compound 11, 1-(4-Methoxy-phenyl)-3-(2-phenoxy-acetyl)-thiourea]	< 30 µM
O=C(COc1ccccc1)NC(=S)Nc1ccc(Oc2ccccc2)cc1 [Compound 12, 1-(2-Phenoxyacetyl)-3-(4-phenoxyphenyl)thiourea]	< 30 µM
O=C(COc1ccccc1)NC(=S)Nc1ccc(OCc2ccccc2)cc1 [Compound 13, 1-(4-Benzyloxy-phenyl)-3-(2-phenoxy-acetyl)-thiourea]	< 30 µM
O=C(COc1ccccc1)NC(=S)Nc1ccc(-c2ccccc2)cc1 [Compound 14, 1-Biphenyl-4-yl-3-(2-phenoxy-acetyl)-thiourea]	< 30 µM
O=C(COc1ccccc1)NC(=S)Nc1ccc(C2CCCCC2)cc1 [Compound 15, 1-(4-Cyclohexyl-phenyl)-3-(2-phenoxy-acetyl)-thiourea]	< 30 µM
O=C(COc1ccccc1)NC(=S)Nc1ccc(N2CCCCC2)cc1 [Compound 16, 1-[(4-piperidine-1-yl)-phenyl]-3-(2-phenoxy-acetyl)-thiourea]	< 30 µM
CCN(CC)c1ccc(NC(=S)NC(=O)COc2ccccc2)cc1 [Compound 17, 1-(4-(Diethylamino)-phenyl)-3-(2-phenoxy-acetyl)-thiourea]	< 30 µM
O=C(COc1ccccc1)NC(=S)Nc1cccc(Oc2ccccc2)c1 [Compound 18, 1-(2-phenoxy-acetyl)-3-(3-phenoxy-phenyl)-thiourea]	< 30 µM
O=C(COc1ccccc1)NC(=S)Nc1cccc(OCc2ccccc2)c1 [Compound 19, 1-(3-Benzyloxy-phenyl)-3-(2-phenoxy-acetyl)-thiourea]	< 30 µM

SMILES	EC50
CC(=O)c1ccccc1NC(=S)NC(=O)COc1ccccc1 [Compound 20, 1-(2-Acetyl-phenyl)-3-(2-phenoxy-acetyl)-thiourea]	< 30 µM
O=C(COc1ccccc1)NC(=S)Nc1ccc2cc(F)ccc2c1 [Compound 21, 1-(6-Fluoro-naphthalen-2-yl)-3-(2-phenoxy-acetyl)-thiourea]	< 30 µM
O=C(COc1ccccc1)NC(=S)Nc1ccc2ncsc2c1 [Compound 22, 1-Benzothiazol-6-yl-3-(2-phenoxy-acetyl)-thiourea]	< 30 µM
O=C(COc1ccccc1)NC(=S)Nc1cnc2ccccc2c1 [Compound 23, 1-(2-Phenoxy-acetyl)-3-quinolin-3-yl-thiourea]	< 30 µM
N#Cc1ccc(NC(=S)NC(=O)COc2ccc(Cl)c(Cl)c2)cc1 [Compound 24, 1-(2-(3,4-dichloro-phenoxy)acetyl)-3-(4-cyanophenyl)thiourea]	< 30 µM
O=C(NC(=S)Nc1cccc(Oc2ccccc2)c1)c1ccccc1O [Compound 25, 1-(2-Hydroxy-benzoyl)-3-(3-phenoxy-phenyl)-thiourea]	< 30 µM
O=C(NC(=S)Nc1cccc(Oc2ccccc2)c1)c1cc2ccccc2o1 [Compound 26, 1-(Benzofuran-2-carbonyl)-3-(3-phenoxy-phenyl)-thiourea]	< 30 µM
O=C(NC(=S)Nc1cccc(OCc2ccccc2)c1)c1cc2ccccc2o1 [Compound 27, 1-(Benzofuran-2-carbonyl)-3-(3-benzyloxy-phenyl)-thiourea]	< 30 µM
O=C(NC(=S)Nc1cccc(OCc2ccccc2)c1)c1cc2ccccc2s1 [Compound 28, 1-(Benzo[b]thiophene-2-carbonyl)-3-(3-benzyloxy-phenyl)-thiourea]	< 30 µM
O=C(NC(=S)Nc1cccc(OCc2ccccc2)c1)c1cc2cc(F)ccc2[nH]1 [Compound 29, 1-(3-Benzyloxy-phenyl)-3-(5-fluoro-1H-indole-2-carbonyl)-thiourea]	< 30 µM
O=C(NC(=S)Nc1ccc(Oc2ccccc2)cc1)c1cc2cc(F)ccc2o1 [Compound 30, 1-(5-Fluoro-benzofuran-2-carbonyl)-3-(4-phenoxy-phenyl)-thiourea]	< 30 µM
Fc1ccc2oc(C(=S)NC(=S)Nc3ccc(Oc4ccccc4)cc3)cc2c1 [Compound 31, 1-(5-Fluoro-benzofuran-2-carbothioyl)-3-(4-phenoxy-phenyl)-thiourea]	< 30 µM
O=C(CCc1ccc(F)cc1)NC(=S)Nc1ccc(Oc2ccccc2)cc1 [Compound 32, 1-[3-(4-Fluoro-phenyl)-proprionyl]-3-(4-phenoxy-phenyl)-thiourea]	< 30 µM
O=C(COc1ccccc1)NC(=S)NC1CCC(Oc2ccccc2)CC1 (stereo not drawn) [Compound 33, 1-(2-Phenoxy-acetyl)-3-(4-phenoxy-cyclohexyl)-thiourea]	< 30 µM
O=C(COc1ccccc1)NC(=S)NCCc1ccccc1 [Compound 34, 1-Phenethyl-3-(2-phenoxy-acetyl)-thiourea]	< 30 µM
CN(CCc1ccccc1)C(=S)NC(=O)COc1ccccc1 [Compound 35, 1-Methyl-1-phenethyl-3-(2-phenoxy-acetyl)-thiourea]	< 30 µM
CCCCOC(=O)c1ccc(NC(=S)NC(=O)CSc2ccccc2)cc1 [Compound 36, 4-[3-(2-(Phenylsulfanyl)-acetyl)-thioureido]-benzoic acid butyl ester]	< 30 µM
O=C(COc1ccccc1)NC(=S)Nc1ccc2c(c1)OCO2 [Compound 37, 1-Benzo[1,3]dioxol-5-yl-3-(2-phenoxy-acetyl)-thiourea]	< 30 µM
O=C(COc1ccccc1)N1CCN(c2cccc(OCc3ccccc3)c2)C1=S [Compound 38]	< 30 µM
